Drawing on patent US20250382297A1, “INHIBITORS OF FGFR2 AND FGFR3 AND USES THEREOF” (Insilico Medicine IP Limited, priority 2022, published 2025), this text covers IC50 for ten compounds.

Assay [1] has as its target FGFR2 (Homo sapiens (Human), UniProt P21802). The assay is described as follows: FGFR biochemical assay (LanthaScreen TR-FRET kinase assay), FGFR2. On the technique in general: In TR-FRET formats the signal depends on donor and acceptor labels being close together.
Experimental: (§1) Convert Ratio values to percent inhibition values (Percent inhibition=(max−sample Ratio)/(max−min)*100) where “min” means the Ratio of no enzyme control and “max” means the Ratio of DMSO control. • Data are analyzed and curve fitting is performed by XLFit Excel add-in version 5.4.0.8. The IC50 calculation equation is: Y=Bottom+(Top-Bottom)/(1+ (IC50/X)^HillSlope.
The target of assay [2] is FGFR1 (Homo sapiens (Human), UniProt P11362). The assay is described as follows: FGFR biochemical assay (LanthaScreen TR-FRET kinase assay), FGFR1.
Sequence of FGFR1 (P11362 22-822): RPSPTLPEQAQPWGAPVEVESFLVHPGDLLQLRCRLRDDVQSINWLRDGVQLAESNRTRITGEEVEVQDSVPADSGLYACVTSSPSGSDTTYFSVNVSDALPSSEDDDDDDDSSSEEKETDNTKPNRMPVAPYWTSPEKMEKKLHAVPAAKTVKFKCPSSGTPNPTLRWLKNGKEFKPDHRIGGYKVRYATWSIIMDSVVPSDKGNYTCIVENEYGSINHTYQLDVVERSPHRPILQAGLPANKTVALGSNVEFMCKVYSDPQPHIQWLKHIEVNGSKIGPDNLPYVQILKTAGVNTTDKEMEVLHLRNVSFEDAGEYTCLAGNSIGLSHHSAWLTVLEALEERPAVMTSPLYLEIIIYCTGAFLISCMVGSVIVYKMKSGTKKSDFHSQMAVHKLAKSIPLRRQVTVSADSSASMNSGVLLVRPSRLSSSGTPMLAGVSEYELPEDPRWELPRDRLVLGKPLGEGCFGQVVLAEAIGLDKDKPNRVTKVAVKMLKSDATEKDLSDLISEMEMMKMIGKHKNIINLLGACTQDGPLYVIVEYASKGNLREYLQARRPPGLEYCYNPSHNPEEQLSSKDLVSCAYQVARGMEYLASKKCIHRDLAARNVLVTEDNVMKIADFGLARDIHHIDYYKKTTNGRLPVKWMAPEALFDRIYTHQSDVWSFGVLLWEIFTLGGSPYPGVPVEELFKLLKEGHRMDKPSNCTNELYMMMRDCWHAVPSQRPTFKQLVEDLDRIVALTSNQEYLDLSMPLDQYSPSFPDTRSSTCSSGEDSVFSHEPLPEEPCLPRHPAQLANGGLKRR
Experimental: as §1
Assay [3] concerns the target FGFR3 (Homo sapiens (Human), UniProt P22607). Briefly: FGFR biochemical assay (LanthaScreen TR-FRET kinase assay), FGFR3.
Experimental: as §1
The mark [4] stands for this setting: read-out: FGFR2 IC50, incubation with enzyme at room temperature for 10 minutes before substrate, ATP 22 μM, FGFR2 0.01 nM.
Where [5] appears, read: read-out: FGFR1 IC50, incubation with enzyme at room temperature for 10 minutes before substrate, ATP 28 μM, FGFR1 0.01 nM.
[6] abbreviates: read-out: FGFR3 IC50, incubation with enzyme at room temperature for 10 minutes before substrate, ATP 35 μM, FGFR3 0.1 nM.

SMILES strings stand for the structures. Where two headings read alike, the source gives them in different places.

Sequence of FGFR2 (P21802 22-821): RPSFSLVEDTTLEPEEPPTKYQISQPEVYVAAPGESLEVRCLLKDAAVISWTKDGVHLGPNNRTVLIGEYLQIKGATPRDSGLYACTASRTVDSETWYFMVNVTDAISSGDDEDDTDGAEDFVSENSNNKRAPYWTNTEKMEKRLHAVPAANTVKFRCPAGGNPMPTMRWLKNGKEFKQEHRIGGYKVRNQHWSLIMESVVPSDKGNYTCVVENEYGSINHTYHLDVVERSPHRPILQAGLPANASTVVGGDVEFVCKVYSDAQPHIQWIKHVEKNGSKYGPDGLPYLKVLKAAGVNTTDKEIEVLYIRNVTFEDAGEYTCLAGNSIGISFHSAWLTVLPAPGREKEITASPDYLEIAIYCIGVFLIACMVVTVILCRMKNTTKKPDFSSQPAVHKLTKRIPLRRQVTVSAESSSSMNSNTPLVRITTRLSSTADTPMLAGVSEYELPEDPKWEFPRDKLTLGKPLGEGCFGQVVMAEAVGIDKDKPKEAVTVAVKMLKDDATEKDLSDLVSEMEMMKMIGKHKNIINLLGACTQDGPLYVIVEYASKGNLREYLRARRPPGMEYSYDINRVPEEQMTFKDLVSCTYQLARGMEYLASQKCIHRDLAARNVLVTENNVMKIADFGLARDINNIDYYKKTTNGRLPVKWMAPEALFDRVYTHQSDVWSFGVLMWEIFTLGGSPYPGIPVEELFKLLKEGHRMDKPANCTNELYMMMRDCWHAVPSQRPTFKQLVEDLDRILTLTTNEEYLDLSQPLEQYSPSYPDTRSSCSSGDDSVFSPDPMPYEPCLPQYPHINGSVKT
Sequence of FGFR3 (P22607 23-806): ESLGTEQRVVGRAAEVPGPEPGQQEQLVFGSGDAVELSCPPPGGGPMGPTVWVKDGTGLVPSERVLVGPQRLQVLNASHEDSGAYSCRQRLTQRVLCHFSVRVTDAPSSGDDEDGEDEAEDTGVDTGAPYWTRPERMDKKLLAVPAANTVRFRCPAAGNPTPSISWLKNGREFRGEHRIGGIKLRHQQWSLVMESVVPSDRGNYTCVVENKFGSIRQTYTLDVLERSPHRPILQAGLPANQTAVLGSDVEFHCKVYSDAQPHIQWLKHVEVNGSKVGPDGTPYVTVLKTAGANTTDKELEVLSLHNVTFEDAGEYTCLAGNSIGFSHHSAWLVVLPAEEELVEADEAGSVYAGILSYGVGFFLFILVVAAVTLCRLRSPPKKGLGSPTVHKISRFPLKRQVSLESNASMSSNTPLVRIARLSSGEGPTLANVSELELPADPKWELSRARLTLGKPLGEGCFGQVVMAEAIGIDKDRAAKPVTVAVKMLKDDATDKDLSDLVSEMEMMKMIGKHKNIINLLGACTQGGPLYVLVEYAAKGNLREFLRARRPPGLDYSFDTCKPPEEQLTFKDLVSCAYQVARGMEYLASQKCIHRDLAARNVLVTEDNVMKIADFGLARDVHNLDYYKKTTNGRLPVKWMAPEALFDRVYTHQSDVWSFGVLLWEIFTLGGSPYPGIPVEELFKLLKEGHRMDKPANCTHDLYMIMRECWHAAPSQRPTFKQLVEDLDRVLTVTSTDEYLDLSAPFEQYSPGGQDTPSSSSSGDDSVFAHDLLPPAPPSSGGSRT

The IC50 is the concentration at which inhibition is half-maximal. Consider `C=CC(=O)Nc1ccc(-c2c(-c3ccc(Oc4cccc(C)n4)cc3)c(C(N)=O)c3cnccn23)cn1` [Example 3, 6-(6-acrylamidopyridin-3-yl)-7-(4-((6-methylpyridin-2-yl)oxy)phenyl)pyrrolo[1,2-a]pyrazine-8-carboxamide], for which the IC50 in assay [1] (setting [4]), in assay [2] (setting [5]) and in assay [3] (setting [6]) was < 10 nM throughout.

Consider `C=CC(=O)Nc1cc(C)c(-c2c(-c3ccc(Oc4cccc(C)n4)cc3)c(C(N)=O)c3cnccn23)cn1` [Example 4, 6-(6-acrylamido-4-methylpyridin-3-yl)-7-(4-((6-methylpyridin-2-yl)oxy)phenyl)pyrrolo[1,2-a]pyrazine-8-carboxamide], for which the IC50 in assay [1], in assay [2] and in assay [3] was 10 to 100 nM throughout.

Turning to `Cc1cn2c(-c3ccc(NC(=O)/C=C/CN(C)C)cc3)c(-c3ccc(Oc4cccc(C)n4)cc3)c(C(N)=O)c2cn1` [Example 9, (E)-6-(4-(4-(dimethylamino)but-2-enamido)phenyl)-3-methyl-7-(4-((6-methylpyridin-2-yl)oxy)phenyl)pyrrolo[1,2-a]pyrazine-8-carboxamide], the values for the IC50 in assay [1] (setting [4]), in assay [2] and in assay [3] were < 10 nM, 100 to 1000 nM and 10 to 100 nM, respectively.

For `Cc1cn2c(-c3ccc(NC(=O)/C=C/CN(C)C)nc3)c(-c3ccc(Oc4cccc(C)n4)cc3)c(C(N)=O)c2cn1` [Example 10, (E)-6-(6-(4-(dimethylamino)but-2-enamido)pyridin-3-yl)-3-methyl-7-(4-((6-methylpyridin-2-yl)oxy)phenyl)pyrrolo[1,2-a]pyrazine-8-carboxamide], the IC50 in assay [1] (setting [4]) is < 10 nM; in assay [2], 10 to 100 nM; in assay [3], 10 to 100 nM.

On to `C=CC(=O)N1CCc2cc(-c3c(-c4ccc(Oc5cccc(C)n5)cc4)c(C(N)=O)c4cnccn34)ccc21` [Example 14, 6-(1-acryloylindolin-5-yl)-7-(4-((6-methylpyridin-2-yl)oxy)phenyl)pyrrolo[1,2-a]pyrazine-8-carboxamide], for which the IC50 in assay [1] (setting [4]), in assay [2] (setting [5]) and in assay [3] (setting [6]) was < 10 nM in each case.

`C=CC(=O)Nc1ccc(-c2c(-c3ccc(Oc4cccc(C)n4)cc3)c(C(N)=O)c3ccncn23)cc1` [Example 15, 7-(4-acrylamidophenyl)-6-(4-((6-methylpyridin-2-yl)oxy)phenyl)pyrrolo[1,2-c]pyrimidine-5-carboxamide]: the IC50 is < 10 nM in assay [1] (setting [4]), 100 to 1000 nM in assay [2] and 10 to 100 nM in assay [3].

Take `C=CC(=O)Nc1ccc(-c2c(-c3ccc(Oc4cccc(C)n4)cc3)c(C(N)=O)c3cnc(OC)cn23)cc1` [Example 17, 6-(4-acrylamidophenyl)-3-methoxy-7-(4-((6-methylpyridin-2-yl)oxy)phenyl)pyrrolo[1,2-a]pyrazine-8-carboxamide]: the IC50 in assay [1] (setting [4]) was < 10 nM; in assay [2], 10 to 100 nM; in assay [3], 10 to 100 nM.

Consider `C=CC(=O)Nc1ccc(-c2c(-c3ccc(Oc4cccc(C)n4)cc3)c(C(N)=O)c3cnc(S(=O)(=O)NC)cn23)cc1` [Example 18, 6-(4-acrylamidophenyl)-7-(4-((6-methylpyridin-2-yl)oxy)phenyl)-3-(N-methylsulfamoyl)pyrrolo[1,2-a]pyrazine-8-carboxamide], for which the IC50 in assay [1] (setting [4]) was < 10 nM; in assay [2], 100 to 1000 nM; in assay [3] it was 10 to 100 nM.

As to `C=CC(=O)Nc1ccc(-c2c(-c3ccc(Oc4nc(C)cs4)cc3)c(C(N)=O)c3cnccn23)cc1` [Example 19, 6-(4-acrylamidophenyl)-7-(4-((4-methylthiazol-2-yl)oxy)phenyl)pyrrolo[1,2-a]pyrazine-8-carboxamide], the half-inhibitory concentration (IC50) in assay [1] (setting [4]) was < 10 nM; in assay [2] it was 10 to 100 nM; in assay [3] it was 10 to 100 nM.

For `C=C(F)C(=O)Nc1ccc(-c2c(-c3ccc(Oc4nccc(C)n4)c(F)c3)c(C(N)=O)c3ccccn23)cc1` [Example 107, 2-(3-fluoro-4-((4-methylpyrimidin-2-yl)oxy)phenyl)-3-(4-(2-fluoroacrylamido)phenyl) indolizine-1-carboxamide], the IC50 in assay [2] is 100 to 1000 nM; in assay [3], 10 to 100 nM.
